# PubChem BioAssay (NCI)
#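 The compound was tested at five concentrations on cells cultured in 96-well plates, with a 48-hour exposure period. GI50 is the concentration that inhibits growth by half. TGI: total growth inhibition.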
# Key:
# Assay in all cases: DTP human tumour cell line panel, 48 h
# [1] = test system: 786-0 renal
# [2] = test system: A498 renal
# [3] = test system: A549 NSCLC
# [4] = test system: ACHN renal
# [5] = test system: BT-549 breast
# [6] = test system: CAKI-1 renal
# [7] = test system: CCRF-CEM leukemia
# [8] = test system: COLO 205 colon
# [9] = test system: DU-145 prostate
# [10] = test system: EKVX NSCLC
# [11] = test system: HCC-2998 colon
# [12] = test system: HCT-116 colon
# [13] = test system: HCT-15 colon
# [14] = test system: HL-60(TB) leukemia
# [15] = test system: HOP-62 NSCLC
# [16] = test system: HOP-92 NSCLC
# [17] = test system: HS 578T breast
# [18] = test system: HT29 colon
# [19] = test system: IGROV1 ovarian
# [20] = test system: K-562 leukemia
# [21] = test system: KM12 colon
# [22] = test system: LOX IMVI melanoma
# [23] = test system: M14 melanoma
# [24] = test system: MCF7 breast
# [25] = test system: MDA-MB-231 breast
# [26] = test system: MDA-MB-435
# [27] = test system: MOLT-4 leukemia
# [28] = test system: NCI-H226 lung
# [29] = test system: NCI-H23 lung
# [30] = test system: NCI-H460 lung
# [31] = test system: NCI-H522 lung
# [32] = test system: NCI/ADR-RES ovarian
# [33] = test system: OVCAR-3 ovarian
# [34] = test system: OVCAR-4 ovarian
# [35] = test system: OVCAR-5 ovarian
# [36] = test system: OVCAR-8 ovarian
# [37] = test system: PC-3 prostate
# [38] = test system: RPMI-8226 leukemia
# [39] = test system: RXF 393 renal
# [40] = test system: SF-268 CNS
# [41] = test system: SF-295 CNS
# [42] = test system: SF-539 CNS
# [43] = test system: SK-MEL-2 melanoma
# [44] = test system: SK-MEL-28 melanoma
# [45] = test system: SK-MEL-5 melanoma
# [46] = test system: SK-OV-3 ovarian
# [47] = test system: SN12C renal
# [48] = test system: SNB-19 CNS
# [49] = test system: SNB-75 CNS
# [50] = test system: SR leukemia
# [51] = test system: SW-620 colon
# [52] = test system: T-47D breast
# [53] = test system: TK-10 renal
# [54] = test system: U251 CNS
# [55] = test system: UACC-257 melanoma
# [56] = test system: UACC-62 melanoma
# [57] = test system: UO-31 renal
smiles,measurement,setting,value
N#Cc1c(N/N=C/c2ccc(Cl)cc2Cl)nc(N)nc1N1CCCC1,GI50,[1],19.5 µM
same,TGI,[1],47.6 µM
same,GI50,[2],19.5 µM
same,TGI,[2],36.1 µM
same,GI50,[3],29.6 µM
same,TGI,[3],65 µM
same,GI50,[4],24.5 µM
same,TGI,[4],90.2 µM
same,GI50,[5],> 100 µM
same,TGI,[5],> 100 µM
same,GI50,[6],21.7 µM
same,TGI,[6],63.2 µM
same,GI50,[7],23.5 µM
same,TGI,[7],58.3 µM
same,GI50,[8],88.1 µM
same,TGI,[8],> 100 µM
same,GI50,[9],10.7 µM
same,TGI,[9],> 100 µM
same,GI50,[10],> 100 µM
same,TGI,[10],> 100 µM
same,GI50,[11],> 100 µM
same,TGI,[11],> 100 µM
same,GI50,[12],20.9 µM
same,TGI,[12],> 100 µM
same,GI50,[13],19.3 µM
same,TGI,[13],> 100 µM
same,GI50,[14],27.7 µM
same,TGI,[14],59.4 µM
same,GI50,[15],15.2 µM
same,TGI,[15],32.4 µM
same,GI50,[16],17.6 µM
same,TGI,[16],43.7 µM
same,GI50,[17],2.4 µM
same,TGI,[17],7.01 µM
same,GI50,[18],37.1 µM
same,TGI,[18],> 100 µM
same,GI50,[19],13.8 µM
same,TGI,[19],39.5 µM
same,GI50,[20],16.7 µM
same,TGI,[20],49.5 µM
same,GI50,[21],> 100 µM
same,TGI,[21],> 100 µM
same,GI50,[22],31.8 µM
same,TGI,[22],> 100 µM
same,GI50,[23],44.2 µM
same,TGI,[23],> 100 µM
same,GI50,[24],> 100 µM
same,TGI,[24],> 100 µM
same,GI50,[25],24.8 µM
same,TGI,[25],> 100 µM
same,GI50,[26],62.2 µM
same,TGI,[26],> 100 µM
same,GI50,[27],25 µM
same,TGI,[27],> 100 µM
same,GI50,[28],15.7 µM
same,TGI,[28],> 100 µM
same,GI50,[29],38.5 µM
same,TGI,[29],> 100 µM
same,GI50,[30],63.9 µM
same,TGI,[30],> 100 µM
same,GI50,[31],28.9 µM
same,TGI,[31],> 100 µM
same,GI50,[32],19.4 µM
same,TGI,[32],82.4 µM
same,GI50,[33],25.5 µM
same,TGI,[33],> 100 µM
same,GI50,[34],14.8 µM
same,TGI,[34],> 100 µM
same,GI50,[35],24.6 µM
same,TGI,[35],99.7 µM
same,GI50,[36],27.5 µM
same,TGI,[36],> 100 µM
same,GI50,[37],12.2 µM
same,TGI,[37],38.4 µM
same,GI50,[38],30.9 µM
same,TGI,[38],> 100 µM
same,GI50,[39],21.5 µM
same,TGI,[39],66.2 µM
same,GI50,[40],68.3 µM
same,TGI,[40],> 100 µM
same,GI50,[41],18.8 µM
same,TGI,[41],> 100 µM
same,GI50,[42],22.8 µM
same,TGI,[42],> 100 µM
same,GI50,[43],72.3 µM
same,TGI,[43],> 100 µM
same,GI50,[44],37.6 µM
same,TGI,[44],> 100 µM
same,GI50,[45],21.5 µM
same,TGI,[45],> 100 µM
same,GI50,[46],47.8 µM
same,TGI,[46],> 100 µM
same,GI50,[47],51.9 µM
same,TGI,[47],> 100 µM
same,GI50,[48],49.9 µM
same,TGI,[48],> 100 µM
same,GI50,[49],6.26 µM
same,TGI,[49],49.8 µM
same,GI50,[50],10.7 µM
same,TGI,[50],42.9 µM
same,GI50,[51],19.5 µM
same,TGI,[51],> 100 µM
same,GI50,[52],88.4 µM
same,TGI,[52],> 100 µM
same,GI50,[53],54.3 µM
same,TGI,[53],> 100 µM
same,GI50,[54],9.02 µM
same,TGI,[54],23.4 µM
same,GI50,[55],> 100 µM
same,TGI,[55],> 100 µM
same,GI50,[56],25.6 µM
same,TGI,[56],84.2 µM
same,GI50,[57],32 µM
same,TGI,[57],> 100 µM
